Assay results taken from patent publication US9775844B2, “Heterocyclic compounds and uses thereof” (Infinity Pharmaceuticals, Inc., priority 2014, dated 2017).

Assays:
[1] = molecular target: PI3K α (Homo sapiens (Human), UniProt P42336); experiment: PI3-Kinase Promega ADP-Glo Max assay; assay type: biochemical
Protocol: (§1) Promega ADP-Glo Max assay kit (Cat. No. V7002) was utilized to determine IC50 values for α, β, δ and γ isoforms of human Class I PI3 kinases (Millipore). […] Reactions were incubated at room temperature for 2 hours followed by addition of 25 uL of stop solution. After a 40-minute incubation at room temperature, 50 uL of Promega detection mix was added followed by incubation for 1 hour at room temperature. Plates were then read on Envision plate reader in lunimescence mode. Data was converted to % inhibition using the following equation below:
(§2) [formula] where S is the sample luminescence, Pos is a positive control without added PI3K, Neg is the negative control without added compound. Data was then plotted as % inhibition vs compound concentration.

[2] = molecular target: PI3K-γ in RAW264.7 macrophages (Mus musculus (Mouse), UniProt Q9JHG7); experiment: Raw264.7 p110 γ assay (PI3K-γ selective cellular assay, C5a-stimulated phospho-AKT); assay type: cell-based; conditions: for IC50: phospho-AKT, read-out: Raw264.7 p110 γ assay IC50
Sequence of PI3K-γ in RAW264.7 macrophages (Q9JHG7 whole entry): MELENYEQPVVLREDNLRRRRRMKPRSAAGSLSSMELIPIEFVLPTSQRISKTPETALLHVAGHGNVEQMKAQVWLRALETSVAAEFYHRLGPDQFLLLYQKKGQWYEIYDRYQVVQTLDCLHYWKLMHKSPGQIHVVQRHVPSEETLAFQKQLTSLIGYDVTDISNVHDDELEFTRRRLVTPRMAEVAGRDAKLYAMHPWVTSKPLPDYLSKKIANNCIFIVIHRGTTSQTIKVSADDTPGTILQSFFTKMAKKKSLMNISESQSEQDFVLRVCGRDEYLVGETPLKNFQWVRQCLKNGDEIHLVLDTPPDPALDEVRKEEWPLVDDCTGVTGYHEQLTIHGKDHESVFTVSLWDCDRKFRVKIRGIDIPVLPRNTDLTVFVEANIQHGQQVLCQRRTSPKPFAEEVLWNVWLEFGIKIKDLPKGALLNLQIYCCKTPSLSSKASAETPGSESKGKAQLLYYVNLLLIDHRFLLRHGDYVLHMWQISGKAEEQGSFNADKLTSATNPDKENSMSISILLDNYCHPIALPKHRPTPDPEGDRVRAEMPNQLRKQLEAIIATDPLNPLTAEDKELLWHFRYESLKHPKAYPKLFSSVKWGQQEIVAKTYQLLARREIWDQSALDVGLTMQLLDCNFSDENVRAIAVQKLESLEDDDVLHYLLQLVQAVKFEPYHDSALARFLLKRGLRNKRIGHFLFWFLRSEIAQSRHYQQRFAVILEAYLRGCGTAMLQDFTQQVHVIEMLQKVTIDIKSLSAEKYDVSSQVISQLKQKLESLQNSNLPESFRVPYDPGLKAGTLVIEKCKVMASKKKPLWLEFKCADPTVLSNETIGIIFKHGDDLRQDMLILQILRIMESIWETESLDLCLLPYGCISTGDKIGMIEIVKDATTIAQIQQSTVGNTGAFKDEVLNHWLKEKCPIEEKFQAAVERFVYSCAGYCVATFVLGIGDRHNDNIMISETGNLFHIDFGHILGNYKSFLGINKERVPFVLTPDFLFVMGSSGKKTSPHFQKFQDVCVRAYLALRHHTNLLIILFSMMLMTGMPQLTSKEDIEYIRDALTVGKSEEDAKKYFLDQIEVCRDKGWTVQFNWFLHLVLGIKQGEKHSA
Description: Briefly, serum-starved RAW264.7 cells are stimulated with a known GPCR agonist C5a. […] Cells can be treated with test compounds prior to, simultaneously with, or subsequent to the stimulation by C5a. RAW 264.7 cells respond to the complement component fragment C5a through activation of the C5a receptor, and the C5a receptor activates macrophages and induces cell migration.

[3] = molecular target: PI3K δ (Homo sapiens (Human), UniProt O00329); experiment: PI3-Kinase Promega ADP-Glo Max assay; assay type: biochemical
Protocol: as §1, §2

[4] = molecular target: PI3K β (Homo sapiens (Human), UniProt P42338); experiment: PI3-Kinase Promega ADP-Glo Max assay; assay type: biochemical
Sequence of PI3K β (P42338 whole entry): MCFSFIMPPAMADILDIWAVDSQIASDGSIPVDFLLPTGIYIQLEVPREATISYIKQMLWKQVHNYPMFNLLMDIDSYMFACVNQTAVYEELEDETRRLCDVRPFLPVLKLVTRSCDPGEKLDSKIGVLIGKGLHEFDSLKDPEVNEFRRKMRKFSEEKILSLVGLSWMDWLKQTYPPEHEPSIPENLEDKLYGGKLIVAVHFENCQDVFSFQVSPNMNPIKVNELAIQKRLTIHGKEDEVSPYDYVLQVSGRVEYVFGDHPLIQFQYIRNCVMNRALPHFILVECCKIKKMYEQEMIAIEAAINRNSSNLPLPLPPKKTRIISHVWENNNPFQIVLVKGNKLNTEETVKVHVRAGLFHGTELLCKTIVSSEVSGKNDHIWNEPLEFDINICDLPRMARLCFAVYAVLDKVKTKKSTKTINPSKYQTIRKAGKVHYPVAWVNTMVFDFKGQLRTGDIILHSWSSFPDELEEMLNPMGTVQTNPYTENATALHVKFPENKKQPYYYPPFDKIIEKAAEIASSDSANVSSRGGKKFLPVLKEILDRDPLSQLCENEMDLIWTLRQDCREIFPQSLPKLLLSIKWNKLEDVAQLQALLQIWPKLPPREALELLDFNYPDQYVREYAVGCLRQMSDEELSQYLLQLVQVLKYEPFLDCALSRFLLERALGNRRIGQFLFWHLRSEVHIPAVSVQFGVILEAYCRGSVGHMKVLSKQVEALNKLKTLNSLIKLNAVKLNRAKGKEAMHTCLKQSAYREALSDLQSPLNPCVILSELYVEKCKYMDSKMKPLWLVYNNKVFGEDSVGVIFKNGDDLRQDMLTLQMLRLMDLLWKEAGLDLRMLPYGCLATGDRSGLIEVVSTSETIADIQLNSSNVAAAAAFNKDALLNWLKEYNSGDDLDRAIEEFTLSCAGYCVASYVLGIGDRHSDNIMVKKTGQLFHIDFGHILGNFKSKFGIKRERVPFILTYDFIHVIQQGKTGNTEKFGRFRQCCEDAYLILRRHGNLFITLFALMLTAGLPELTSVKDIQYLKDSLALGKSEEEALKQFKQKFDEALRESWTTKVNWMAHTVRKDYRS
Sequence of PI3K β (P27986 whole entry partner): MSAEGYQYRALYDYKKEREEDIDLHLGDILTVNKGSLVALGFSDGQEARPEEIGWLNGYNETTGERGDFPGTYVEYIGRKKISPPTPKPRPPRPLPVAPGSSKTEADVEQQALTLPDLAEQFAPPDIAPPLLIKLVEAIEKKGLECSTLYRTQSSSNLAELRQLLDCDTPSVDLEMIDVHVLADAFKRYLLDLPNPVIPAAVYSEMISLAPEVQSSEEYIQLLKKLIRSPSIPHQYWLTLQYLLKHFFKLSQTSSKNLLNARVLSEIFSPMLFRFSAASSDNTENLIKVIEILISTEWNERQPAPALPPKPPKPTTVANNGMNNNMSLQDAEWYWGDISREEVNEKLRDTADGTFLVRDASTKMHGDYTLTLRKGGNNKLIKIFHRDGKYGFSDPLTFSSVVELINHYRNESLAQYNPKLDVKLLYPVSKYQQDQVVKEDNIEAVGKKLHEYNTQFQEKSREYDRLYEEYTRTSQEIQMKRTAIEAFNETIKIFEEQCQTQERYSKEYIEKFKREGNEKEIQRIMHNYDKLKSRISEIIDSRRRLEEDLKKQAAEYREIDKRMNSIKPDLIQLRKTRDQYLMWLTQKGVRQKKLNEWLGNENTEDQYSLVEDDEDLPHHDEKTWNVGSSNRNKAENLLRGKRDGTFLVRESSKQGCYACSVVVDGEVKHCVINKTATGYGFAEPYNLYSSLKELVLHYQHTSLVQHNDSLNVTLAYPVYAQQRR

[5] = molecular target: PI3K γ (Homo sapiens (Human), UniProt P48736); experiment: PI3-Kinase Promega ADP-Glo Max assay; assay type: biochemical
Sequence of PI3K γ (P48736 whole entry): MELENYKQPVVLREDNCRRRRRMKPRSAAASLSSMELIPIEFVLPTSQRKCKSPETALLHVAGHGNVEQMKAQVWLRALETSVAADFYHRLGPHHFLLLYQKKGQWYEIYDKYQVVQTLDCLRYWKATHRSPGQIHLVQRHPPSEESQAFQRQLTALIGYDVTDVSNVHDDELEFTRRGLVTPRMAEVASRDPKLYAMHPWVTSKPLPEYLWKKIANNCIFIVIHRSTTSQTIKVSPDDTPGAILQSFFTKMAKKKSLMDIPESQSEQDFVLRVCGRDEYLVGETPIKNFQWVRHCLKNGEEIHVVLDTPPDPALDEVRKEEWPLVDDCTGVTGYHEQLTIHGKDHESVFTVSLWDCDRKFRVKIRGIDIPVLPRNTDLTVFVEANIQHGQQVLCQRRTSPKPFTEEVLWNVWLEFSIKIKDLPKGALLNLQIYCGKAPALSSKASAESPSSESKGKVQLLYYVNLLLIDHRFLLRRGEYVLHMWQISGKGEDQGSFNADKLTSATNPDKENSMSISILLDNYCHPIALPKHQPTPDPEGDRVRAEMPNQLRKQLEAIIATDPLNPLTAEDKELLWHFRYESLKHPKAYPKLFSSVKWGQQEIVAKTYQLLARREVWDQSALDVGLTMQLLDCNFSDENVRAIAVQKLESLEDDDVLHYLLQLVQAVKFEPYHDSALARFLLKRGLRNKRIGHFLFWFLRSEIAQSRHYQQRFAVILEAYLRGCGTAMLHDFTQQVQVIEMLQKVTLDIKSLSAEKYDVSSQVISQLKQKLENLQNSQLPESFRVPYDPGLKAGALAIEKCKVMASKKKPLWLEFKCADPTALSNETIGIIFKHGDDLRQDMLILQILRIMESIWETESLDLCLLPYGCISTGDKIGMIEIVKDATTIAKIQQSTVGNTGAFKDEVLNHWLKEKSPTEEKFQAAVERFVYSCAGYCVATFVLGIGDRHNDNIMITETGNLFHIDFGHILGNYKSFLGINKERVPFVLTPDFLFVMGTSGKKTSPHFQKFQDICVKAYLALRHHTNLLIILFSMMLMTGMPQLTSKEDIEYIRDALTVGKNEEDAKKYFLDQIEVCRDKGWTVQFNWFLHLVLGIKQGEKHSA

[6] = molecular target: PI3K-δ in RAJI cells (Homo sapiens (Human), UniProt O00329); experiment: RAJI p110 δ assay (PI3K-δ selective cellular assay, phospho-AKT); assay type: cell-based; conditions: phospho-AKT; read-out: RAJI p110 δ assay IC50

Sequence of PI3K α (P42336 whole entry): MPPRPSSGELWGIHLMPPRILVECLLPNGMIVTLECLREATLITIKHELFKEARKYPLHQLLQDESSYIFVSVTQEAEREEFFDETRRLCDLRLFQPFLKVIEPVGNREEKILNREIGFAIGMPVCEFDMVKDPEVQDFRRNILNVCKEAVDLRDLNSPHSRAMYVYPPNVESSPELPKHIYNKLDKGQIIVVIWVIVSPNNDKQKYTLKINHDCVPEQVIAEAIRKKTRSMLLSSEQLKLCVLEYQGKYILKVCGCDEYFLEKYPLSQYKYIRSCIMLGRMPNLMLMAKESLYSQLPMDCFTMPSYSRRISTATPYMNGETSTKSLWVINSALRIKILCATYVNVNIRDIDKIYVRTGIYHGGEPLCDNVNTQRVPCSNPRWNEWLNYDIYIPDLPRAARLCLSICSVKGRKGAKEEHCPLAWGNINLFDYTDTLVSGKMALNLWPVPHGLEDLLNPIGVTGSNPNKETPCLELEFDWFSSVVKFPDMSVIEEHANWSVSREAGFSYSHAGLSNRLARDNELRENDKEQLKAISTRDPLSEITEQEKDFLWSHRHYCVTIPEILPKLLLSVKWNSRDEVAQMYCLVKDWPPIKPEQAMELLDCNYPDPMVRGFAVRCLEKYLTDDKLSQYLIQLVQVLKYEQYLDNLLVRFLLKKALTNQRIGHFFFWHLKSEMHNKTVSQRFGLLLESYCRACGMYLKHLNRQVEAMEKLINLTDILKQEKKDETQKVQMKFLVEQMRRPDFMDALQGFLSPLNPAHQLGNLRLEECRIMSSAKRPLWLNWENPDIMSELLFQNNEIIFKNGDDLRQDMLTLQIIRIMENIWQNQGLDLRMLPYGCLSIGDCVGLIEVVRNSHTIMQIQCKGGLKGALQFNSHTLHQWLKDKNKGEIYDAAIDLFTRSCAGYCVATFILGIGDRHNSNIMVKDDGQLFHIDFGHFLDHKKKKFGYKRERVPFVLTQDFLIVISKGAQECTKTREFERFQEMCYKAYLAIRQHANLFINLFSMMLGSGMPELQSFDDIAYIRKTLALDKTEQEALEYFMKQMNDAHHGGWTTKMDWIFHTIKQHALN
Sequence of PI3K α (P27986 whole entry partner): as the sequence (P27986 whole entry partner) above

SMILES | IC50 [1] [µM] | RAJIδ/Raw264.7 γ IC50 (selectivity) [2] | IC50 [2] [nM] | IC50 [3] [µM] | IC50 [4] [µM] | IC50 [5] [nM] | PI3K δ/PI3K γ IC50 (selectivity) [5] | IC50 [6] [nM]
Cc1nc(C#Cc2cccc3cc([C@H](C)NC(=O)c4c(N)nn5cccnc45)n(-c4ccccc4)c(=O)c23)cs1 [Compound 40] | 1 to 5 | Y (Y = 50 to <850) | 1 to 50 | 5 to 10 | 5 to 10 | 1 to 100 | Y (Y = 50 to <850) | 100 to 500
C[C@H](NC(=O)c1c(N)nn2cccnc12)c1cc2cccc(C#Cc3cncs3)c2c(=O)n1-c1ccccc1 [Compound 41] | 5 to 10 | Y (Y = 50 to <850) | 1 to 50 | 5 to 10 | 5 to 10 | 100 to 500 | Y (Y = 50 to <850) | 100 to 500
C[C@H](NC(=O)c1c(N)nn2cccnc12)c1cc2cccc(C#Cc3cnc[nH]3)c2c(=O)n1-c1ccccc1 [Compound 43] | 5 to 10 | X (X = 10 to <50) | 1 to 50 | 5 to 10 | 5 to 10 | 100 to 500 | Y (Y = 50 to <850) | 100 to 500
C#Cc1cccc2nc([C@H](C)NC(=O)c3c(N)nn4cccnc34)n(-c3ccc(F)c(F)c3)c(=O)c12 [Compound 45] | 5 to 10 | W (W = >1 to <10) | 1 to 50 | 5 to 10 | 5 to 10 | 100 to 500 | Y (Y = 50 to <850) | 100 to 500
C#Cc1cccc2nc([C@H](C)NC(=O)c3c(N)nn4cccnc34)n(-c3ccccc3)c(=O)c12 [Compound 46] | 5 to 10 | W (W = >1 to <10) | 1 to 50 | 1 to 5 | 1 to 5 | 1 to 100 | Y (Y = 50 to <850) | 1 to 100
C#Cc1cccc2nc([C@H](C)NC(=O)c3c(N)nn4cccnc34)n(C)c(=O)c12 [Compound 48] | 1 to 5 | V (V = 0.1 to 1) | 1 to 50 | 1 to 5 | 0.5 to 1 | 500 to 1000 | W (W = >1 to <10) | 1 to 100
C#Cc1cccc2nc([C@H](C)NC(=O)c3nccnc3N)n(-c3ccc(F)cc3)c(=O)c12 [Compound 49] | 5 to 10 | V (V = 0.1 to 1) | 1 to 50 | 1 to 5 | 1 to 5 | 1 to 100 | X (X = 10 to <50) | 1 to 100
C#Cc1cccc2nc([C@H](C)NC(=O)c3c(N)nn4cccnc34)n(-c3ccc(F)cc3)c(=O)c12 [Compound 50] | 5 to 10 | W (W = >1 to <10) | 1 to 50 | 1 to 5 | 5 to 10 | 1 to 100 | Y (Y = 50 to <850) | 1 to 100
CC#Cc1cccc2cc(C(C)NC(=O)c3c(N)nn4cccnc34)c(-c3ccccc3)nc12 (stereo not shown) [Compound 51] | 5 to 10 | W (W = >1 to <10) | 1 to 50 | 1 to 5 | 1 to 5 | 100 to 500 | W (W = >1 to <10) | 1 to 100
C[C@H](NC(=O)c1c(N)nn2cccnc12)c1cc2cccc(C#Cc3cscn3)c2c(=O)n1-c1ccccc1 [Compound 54] | 1 to 5 | W (W = >1 to <10) | 1 to 50 | 1 to 5 | 1 to 5 | 1 to 100 | Y (Y = 50 to <850) | 100 to 500
C[C@H](NC(=O)c1c(N)nn2cccnc12)c1nc2cccc(C#Cc3cnn(C)c3)c2c(=O)n1C [Compound 55] | 1 to 5 | X (X = 10 to <50) | 1 to 50 | 5 to 10 | 1 to 5 | 1000 to 5000 | W (W = >1 to <10) | 500 to 1000
C[C@H](NC(=O)c1c(N)nn2cccnc12)c1cc2cccc(C#CCN3CCN(C)CC3)c2c(=O)n1-c1ccccc1 [Compound 56] | 5 to 10 | V (V = 0.1 to 1) | 100 to 10000 | 5 to 10 | 5 to 10 | 100 to 500 | X (X = 10 to <50) | 100 to 500
C[C@H](NC(=O)c1c(N)nn2cccnc12)c1cc2cccc(C#CCN(C)C)c2c(=O)n1-c1ccccc1 [Compound 57] | 5 to 10 | W (W = >1 to <10) | 50 to 100 | 5 to 10 | 5 to 10 | 500 to 1000 | W (W = >1 to <10) | 100 to 500
C[C@H](NC(=O)c1c(N)nn2cccnc12)c1cc2cccc(C#CC(F)(F)F)c2c(=O)n1-c1ccccc1 [Compound 58] | 5 to 10 | V (V = 0.1 to 1) | 100 to 10000 | 5 to 10 | 5 to 10 | 1000 to 5000 | W (W = >1 to <10) | 500 to 1000
C[C@H](NC(=O)c1c(N)nn2cccnc12)c1cc2cccc(C#Cc3nccs3)c2c(=O)n1-c1ccccc1 [Compound 59] | 5 to 10 | X (X = 10 to <50) | 1 to 50 | 5 to 10 | 5 to 10 | 100 to 500 | X (X = 10 to <50) | 100 to 500
Cc1csc(C#Cc2cccc3cc([C@H](C)NC(=O)c4c(N)nn5cccnc45)n(-c4ccccc4)c(=O)c23)n1 [Compound 60] | 5 to 10 | Y (Y = 50 to <850) | 1 to 50 | 5 to 10 | 5 to 10 | 100 to 500 | X (X = 10 to <50) | 100 to 500
Cc1ccncc1C#Cc1cccc2cc([C@H](C)NC(=O)c3c(N)nn4cccnc34)n(-c3ccccc3)c(=O)c12 [Compound 61] | 5 to 10 | Y (Y = 50 to <850) | 1 to 50 | 5 to 10 | 5 to 10 | 500 to 1000 | X (X = 10 to <50) | 1000 to 10000
C[C@H](NC(=O)c1c(N)nn2cccnc12)c1cc2cccc(C#CC3(O)CN4CCC3CC4)c2c(=O)n1-c1ccccc1 (stereo partly shown) [Compound 62] | 5 to 10 | V (V = 0.1 to 1) | 100 to 10000 | 5 to 10 | 5 to 10 | 500 to 1000 | X (X = 10 to <50) | 1000 to 10000
Cc1nc(C#Cc2cccc3nc([C@H](C)NC(=O)c4c(N)nn5cccnc45)n(-c4ccccc4)c(=O)c23)cs1 [Compound 63] | 5 to 10 | Y (Y = 50 to <850) | 1 to 50 | 5 to 10 | 5 to 10 | 1 to 100 | Y (Y = 50 to <850) | 500 to 1000
C[C@H](NC(=O)c1c(N)nn2cccnc12)c1cc2cccc(C#CC3CCCC3)c2c(=O)n1-c1ccccc1 [Compound 64] | 5 to 10 | X (X = 10 to <50) | 100 to 10000 | 5 to 10 | 5 to 10 | 1000 to 5000 | W (W = >1 to <10) | 1000 to 10000
